By melting point is commonly meant the temperature of the solid-liquid transition.

pIC50: −log10 of the molar value.

We go through one molecule from publication PMC9157788, “Design, Synthesis, and Apoptosis-Promoting Effect Evaluation of Rhopaladins’ Analog 4-Arylidene-5-Oxopyrrolidine Derivatives” (Frontiers in Chemistry, 2022).

For data set [1], the system named is 7402 cells. Nature of the data set: MTT cell viability assay, 7402. Type of data set: cell-based. As to conditions: Homo sapiens, 48 h, read-out: Half inhibitory concentration (IC50), 7402. The procedure:
(§1) HepG2 (human epidermoid hepatocellular carcinoma cell), 7402 (human epidermoid hepatocellular carcinoma cell), C-33A (human epidermoid cervical carcinoma cell), and HeLa (human epidermoid cervical adenocarcinoma cell) were incubated in Dulbecco’s modified Eagle’s medium (DMEM), which was purchased from Gibco (Grand Island, NY, United States). SiHa cells (human epidermoid cervical squamous cell carcinoma) were incubated in minimum essential medium (MEM, also from Gibco). CaSki (human epidermoid cervical carcinoma cell) and LO2 (human normal liver cell) were incubated in minimum essential medium (MEM, also from Gibco). All cells were maintained at 37°C in a humidified incubator with 5% carbon dioxide, and the media contained 10% fetal bovine serum (FBS, Corning, United States) and 1% penicillin–streptomycin antibiotic solution (Corning, United States). SiHa and CaSki were bought from the China Center for Type Culture Collection (CCTCC). The other five types of cancer cell lines were obtained from the Experiment Center of Medicine, Sinopharm Dongfeng Hospital, Hubei University of Medicine. The compounds were dissolved in dimethyl sulfoxide (DMSO, MP Biomedicals, United States), and cisplatin was purchased from Aladdin, Shanghai, China. The control (0 μM) group was treated with DMSO only in the same conditions, and the DMSO content in the medium was less than 0.1%.
(§2) Cell viability was measured by a 3-(4,5-dimethylthiazol-2-yl)-2,5-diphenyltetrazolium bromide (MTT, MultiSciences, China) assay. The specific experimental steps referred to our previous research ([Zhu et al., 2020]). For each cell line, cells were digested and seeded in 96-well plates at a density of 1 × 10^3 cells/well. […] Then, the formed formazan crystals were dissolved in DMSO, and the plates were estimated in a […] microplate reader (BioTek Inc., Bio-Tek MQX200) at a wavelength of 490 nm. Optical density (OD) values were obtained, and the inhibition rate and IC50 of each compound on different cells were calculated by GraphPad Prism 8.0.1 software. […]

For the next data set, the system named is HepG2 cells. As to the kind of experiment: Wound healing assay, HepG2. Type of data set: cell-based, human. As to conditions: 48 h. The procedure: The experimental procedures were performed according to conventional methods ([Kovaříková et al., 2014]). Hepatocarcinoma cells at the logarithmic growth stage were taken and inoculated into six-well plates with 2 × 10^4 cells/well. When the cell density is about 80%, the cell wound was scratched with pipette tips. Cells were then washed with PBS and added to the cell culture broth containing 1% serum with varying concentrations of RPDPRH (0 μM, 6.25, 12.5, and 25 μM) for 48 h. Pictures were taken at 0 and 48 h under a microscope (100×). Wound healing rate (%) = [(0 h scratch distance−48 h scratch distance)/0 h scratch distance] × 100%.

In a further data set the test system is Bcl-2. Nature of the data set: Western blot, Bcl-2 expression in 7402 cells. Type of data set: cell-based, human. As to conditions: 7402, 25 μM, 48 h, vs DMSO control, p < 0.01. The procedure:
(§3) The experimental steps of the Western blotting assay referred to Lin’s study ([Lin et al., 2020]). After treatment with different concentrations of RPDPRH (0, 6.25, 12.5, and 25 μM) for 48 h, hepatocarcinoma cells were lysed with an ice-cold RIPA protein lysis buffer (Beyotime, China). Total cell lysates were prepared with RIPA lysis buffer containing phosphatase inhibitors (Roche, China) and protease inhibitors (MedChemExpress, United States). Total cell lysates were centrifuged at 10,000 g for 10 min at 4°C to obtain the supernatant. The protein concentration was detected according to the BCA Protein Assay Kit (Beyotime, China). Then, 5× SDS loading buffer (Beyotime, China) was added to the supernatant and boiled at 100°C for 10 min. The obtained protein samples were stored at −80°C.
(§4) The protein samples (20 μg) were resolved on 4% concentration glue and 12% separating glue and prepared according to the SDS-PAGE Gel Quick Preparation Kit procedure (Beyotime, China). After electrophoresis at 80 V for 1.5–2 h, the proteins were wet-transferred onto a polyvinylidene difluoride membrane (PVDF, Millipore) at 300 mA for 1–1.5 h. […]

A further data set deals with SiHa cells. As to the kind of experiment: MTT cell viability assay, SiHa. Type of data set: cell-based. As to conditions: Homo sapiens, 48 h, read-out: Half inhibitory concentration (IC50), SiHa. The procedure: as §1, §2
Background: Formazan colour is commonly taken as a measure of viable cells.

Another data set deals with Bax. As to the kind of experiment: Western blot, Bax expression in 7402 cells. As to conditions: 7402, 25 μM, 48 h, vs DMSO control. It counts as cell-based, human. The procedure: as §3, §4
Data set [2] deals with 7402 cells. Nature of the data set: Annexin V-FITC/PI flow cytometry apoptosis assay, 7402. It counts as cell-based, human. As to conditions: 48 h; for total apoptosis rate: DMSO control 8.96 ± 3.05%. The procedure: The effect of RPDPRH on apoptosis was performed using the Annexin V-FITC/PI Apoptosis kit (MultiSciences, China), following the manufacturer’s protocol. The cells were digested, dispersed, and plated into six-well plates with 2 × 10^4 cells/well and treated with RPDPRH (0, 6.25, 12.5, and 25 μM) at various concentrations for 48 h. Upon completion of the treatment, cells were harvested, washed with cool phosphate buffered solution (PBS, Gibco, United States) (0.01 M, pH=7.4), and re-suspended in a 500 μl binding buffer. Annexin V-FITC (5 μl) and PI (10 μl) were added into the cell suspension, and then, the suspension was incubated at room temperature away from light for 5 min. Cells were analyzed by using a flow cytometer (Agilent NovoCyte, China) immediately, and the results of the apoptosis were analyzed by FlowJo software.

With `O=C1/C(=C/c2ccc(Cl)cc2)CC(/C=C/c2ccc(Cl)cc2)(C(=O)NC2CCCCC2)N1c1ccc(F)cc1` (stereo not shown) [RPDPRH, (2E, 4E)-4-(4-chlorobenzylidene)-2-(4-chlorostyryl)-N-cyclohexyl-1-(4-fluorophenyl)-5-oxopyrrolidine-2-carboxamide], the melting point was 128 to 130 °C. Besides, the pIC50 in the data set with 7402 cells [1] is 4.65. The wound healing rate entry in the data set with HepG2 cells (HepG2, 25 μM, vs DMSO control, p < 0.001) was “significantly decreased”. Also, the wound healing rate result in the data set with HepG2 cells (HepG2, 6.25, 12.5 and 25 μM) is on record as “significantly reduced”. Besides, in the data set on Bcl-2, the “expression of anti-apoptotic protein Bcl-2” value was “decrease”. The pIC50 with SiHa cells was 4.75. For the same molecule, in the data set with Bax, the “ratio of Bax/Bcl-2” value was “increase obviously”. Also, the “expression of pro-apoptotic protein Bax” value in the data set on Bax (p < 0.05) is given as “significant increase”. Moreover, in the data set with 7402 cells [2] (7402, 6.25 μM), the “early apoptotic cell (LR) rate” value is 4.37%, the “late apoptotic (UR) rate” value amounted to 9.34% and the total apoptosis rate is recorded as 13.71 ± 1.30%. Also, in the data set with 7402 cells [2] (7402, 12.5 μM), the “early apoptotic cell (LR) rate” value was found to be 8.53% and the “late apoptotic (UR) rate” value stood at 15.30%. In the data set on 7402 cells [2] (7402, 25 μM), the “early apoptotic cell (LR) rate” value is recorded as 11.40%, the “late apoptotic (UR) rate” value was determined as 24.60% and the total apoptosis rate stood at 36.00 ± 2.67%.
